Results taken from paper PMC9983021, “Novel GluN2B-Selective NMDA Receptor Negative Allosteric Modulator Possesses Intrinsic Analgesic Properties and Enhances Analgesia of Morphine in a Rodent Tail Flick Pain Model” (ACS Chemical Neuroscience, 2023).

Key:
C57BL/6J mice [1] = experiment: Hot water tail immersion test, compound alone (intrinsic antinociception); type: in vivo; conditions: for dose at which significant increase in latency was achieved / dose at which significant latency increases were achieved: i.p.; for effect on tail flick latency vs vehicle / mean latency increase: i.p. 30 min prior to test; for effect on tail flick latency vs vehicle: n = 8 per group; for dose at which significant latency increases were achieved: lowest significant dose
Description: After evaluating EU93-108 in vitro, we next evaluated a panel of GluN2B inhibitors for their ability to produce an antinociceptive effect using a classical model of pain perception, determination of tail flick latency for mice when their tails are placed in hot water (Figures 4 and 5). The hot water tail immersion test is a well-validated method of assessing reflexive (i.e., spinal) pain-like response in rodents.[80]−[83] We interpret a drug-induced increase in tail flick latency as analgesia.
The inhibitors were injected i.p. 30 min prior to a hot water tail immersion test. Four treatment groups and one control group were used (n = 8 per group) where the control group received vehicle (10% DMSO, 20% PEG, 2% DMA in water) and groups 1 through 4 were randomly assigned one dose of the appropriate compound.
All animal studies performed at Emory have been approved by the Institutional Animal Care and Use Committee at Emory University. Male and female C57BL/6J mice weighing between 20 and 30 g were housed five per cage and given ad libitum access to food and water. The mice were 8–10 weeks of age at the time of experimentation. Animal holding rooms operated on a 12 h dark/light cycle with the dark cycle from 7:00 pm to 7:00 am. Mice were allowed to acclimate in cages for one week after arrival. The mice were handled regularly and habituated to scruffing and cloth restraint for 3–5 days prior to experimentation.
Mouse weights were recorded on the day of each experiment. Mice were given the appropriate treatment(s) 30 min prior to testing. All injection volumes were 10 mL/kg (e.g., 350 μL for a 35 g mouse). For the tail immersion experiments, each mouse was restrained with a Wypall cloth, leaving the tail exposed. The distal two-thirds of the tail was lowered into a sous vide water bath set to 48 °C, and a stopwatch with a resolution of 0.01 s was used to record the time elapsed between immersion and tail flick. Three recordings were taken for each mouse, and each data point is expressed as the mean of the three recordings. A cut-off time of 25 s was implemented to prevent tissue damage or scarring. For each experiment, the identities of the doses were coded by an independent researcher to ensure blinding. The identities were not decoded until the data were analyzed.
Prism 9.3.1 software (GraphPad, San Diego, CA) was used for all data analysis and visualization. Data for intrinsic antinociception was analyzed using one-way ANOVA and Dunnett’s post hoc test for multiple comparisons where each group was compared to vehicle. Data for acute morphine potentiation experiments were analyzed using one-way ANOVA and Tukey’s post hoc test for multiple comparisons was also used, where each group mean was compared to the mean of every other group. Data for tolerance experiments were analyzed using repeated measures two-way ANOVA and Bonferroni post hoc analysis. Data are presented as mean ± SEM and p < 0.05 constitutes significance.

C57BL/6J mice [2] = experiment: Preestablished morphine tolerance (tolerant mice, tail immersion test); type: in vivo; conditions: co-administered with morphine; males 10 mg/kg, females 20 mg/kg i.p.
Description: We next wanted to assess EU93-108 for effects on other facets of tolerance. Specifically, we were interested in whether EU93-108 could increase tail flick latency in mice that were already tolerant to morphine (i.e., preestablished tolerance). To assess the effect of EU93-108 on preestablished tolerance, five groups were used (n = 8 per group): vehicle/saline, vehicle/morphine, ifenprodil/morphine, EU93-108/saline, and EU93-108/morphine. All groups except for the vehicle/saline control group were administered morphine three times per day (according to the stair stepping protocol outlined in Figure 11) at gradually increasing doses from 25 to 40 mg/kg three times a day at 3–4 h intervals for three consecutive days until tolerance was observed on day 4 (Figure 12, black circles).
Figure 11 Dosing regimen to assess effects of EU93-108 on tolerant mice. TIT = tail immersion test. All mice received morphine or saline three times a day according to the protocol in Figure 9. Doses of morphine are shown above the arrows, in mg/kg. Once tolerance was established on day 4, the mice were randomly assigned to receive vehicle, EU93-108, or ifenprodil once a day for two consecutive days. […]
Mouse weights were recorded on the day of each experiment. […] Three recordings were taken for each mouse, and each data point is expressed as the mean of the three recordings. […] The identities were not decoded until the data were analyzed.
Prism 9.3.1 software (GraphPad, San Diego, CA) was used for all data analysis and visualization. Data for intrinsic antinociception was analyzed using one-way ANOVA and Dunnett’s post hoc test for multiple comparisons where each group was compared to vehicle. Data for acute morphine potentiation experiments were analyzed using one-way ANOVA and Tukey’s post hoc test for multiple comparisons was also used, where each group mean was compared to the mean of every other group. Data for tolerance experiments were analyzed using repeated measures two-way ANOVA and Bonferroni post hoc analysis. […]

| Compound | dose at which significant increase in latency was achieved (C57BL/6J mice [1]; female mice) | effect on tail flick latency vs vehicle (C57BL/6J mice [1]; female mice) | mean latency increase (C57BL/6J mice [1]; male mice) | effect on tail flick latency vs vehicle (C57BL/6J mice [1]; male mice) | dose at which significant latency increases were achieved (C57BL/6J mice [1]; male mice) | ED50 (C57BL/6J mice [1]; Mus musculus, sc, 0.5 h, read-out: ED50 (tail flick latency), morphine dose-response curve) | tail flick latency in morphine-tolerant mice, day 5 vs day 4 (C57BL/6J mice [2]) |
| --- | --- | --- | --- | --- | --- | --- | --- |
| CS(=O)(=O)Nc1ccc(OC[C@@H](O)CNCCc2ccc(Cl)c(Cl)c2)cc1 [EU93-4] | 50 mg/kg | significant increases in latency at the highest doses tested | 10 s | significant increases in tail flick latency at 50 mg/kg | 50 mg/kg | – | – |
| CCCCN(CCc1ccc(Cl)c(Cl)c1)C[C@H](O)COc1ccc(NS(C)(=O)=O)cc1 [EU93-31] | 100 mg/kg | significant increases in latency at the highest doses tested | 10 s | significant increases in latency at the two highest doses tested (50 and 100 mg/kg) | 50 mg/kg | – | – |
| CN1CC[C@]23c4c5ccc(O)c4O[C@H]2[C@@H](O)C=C[C@H]3[C@H]1C5 [Morphine] | – | – | – | – | – | 5.15 mg/kg | – |
| C[C@H](CN1CCC(Cc2ccccc2)CC1)[C@H](O)c1ccc(O)cc1 [Ro25-6981, reference compound] | – | did not produce any significant increases in latency at the doses tested | – | did not display significant increases in latency at the doses tested | – | – | – |
| CC(C(O)c1ccc(O)cc1)N1CCC(Cc2ccccc2)CC1 (stereo not shown) [ifenprodil, reference compound] | – | did not produce any significant increases in latency at the doses tested | – | did not display significant increases in latency at the doses tested | – | – | continued to decrease on day 5 |
